Results on 20 compounds are retold here after US20240156825A1, “USE OF SELECTIVE VEGFR2 AND FGFR1 INHIBITORS” (Fountain Therapeutics Inc., priority 2022, published 2024).

Read-outs that look alike come from different tables or passages of the source.

The target in experiment [1] is T1, VEGFR2 (Homo sapiens, UniProt P35968).
A further experiment deals with any gene target. Particulars: cited from earlier work.
Experiment [2] addresses T1, VEGFR2. This is another data set of the same source.
The next experiment has as its target FGFR1 (Homo sapiens, UniProt P11362).
In another experiment the test system is VEGFR2 and FGFR1. The experiment can be described thus: Selection of compounds that selectively inhibit both VEGFR2 and FGFR1 (average relative IC50).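 Also: relative IC50 is the IC50 for VEGFR2 or FGFR1 divided by the next-lowest IC50 reported against any target gene.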 It counts as biochemical.
The mark [3] stands for this setting: lowest reported IC50 to any gene target, read-out: min IC50.
Setting [4] is: next lowest IC50 value to any gene target, read-out: Min IC50_μM.
Where [5] appears, read: relative IC50: reported IC50 toward VEGFR2 divided by next lowest reported IC50 to any gene target.
[6] abbreviates: relative IC50: reported IC50 toward FGFR1 divided by next lowest reported IC50 to any gene target.
The mark [7] stands for this setting: average of VEGFR2 and FGFR1 relative IC50.
The mark [8] stands for this setting: reported IC50 to VEGFR2; Table 3, selective inhibitors of VEGFR2; read-out: VEGFR2 IC50_μM; cited from earlier work.
Where [9] appears, read: next lowest IC50 value to any gene target, Table 3, read-out: Min IC50_μM.

FGFR1, sequence (P11362 22-822, species assumed): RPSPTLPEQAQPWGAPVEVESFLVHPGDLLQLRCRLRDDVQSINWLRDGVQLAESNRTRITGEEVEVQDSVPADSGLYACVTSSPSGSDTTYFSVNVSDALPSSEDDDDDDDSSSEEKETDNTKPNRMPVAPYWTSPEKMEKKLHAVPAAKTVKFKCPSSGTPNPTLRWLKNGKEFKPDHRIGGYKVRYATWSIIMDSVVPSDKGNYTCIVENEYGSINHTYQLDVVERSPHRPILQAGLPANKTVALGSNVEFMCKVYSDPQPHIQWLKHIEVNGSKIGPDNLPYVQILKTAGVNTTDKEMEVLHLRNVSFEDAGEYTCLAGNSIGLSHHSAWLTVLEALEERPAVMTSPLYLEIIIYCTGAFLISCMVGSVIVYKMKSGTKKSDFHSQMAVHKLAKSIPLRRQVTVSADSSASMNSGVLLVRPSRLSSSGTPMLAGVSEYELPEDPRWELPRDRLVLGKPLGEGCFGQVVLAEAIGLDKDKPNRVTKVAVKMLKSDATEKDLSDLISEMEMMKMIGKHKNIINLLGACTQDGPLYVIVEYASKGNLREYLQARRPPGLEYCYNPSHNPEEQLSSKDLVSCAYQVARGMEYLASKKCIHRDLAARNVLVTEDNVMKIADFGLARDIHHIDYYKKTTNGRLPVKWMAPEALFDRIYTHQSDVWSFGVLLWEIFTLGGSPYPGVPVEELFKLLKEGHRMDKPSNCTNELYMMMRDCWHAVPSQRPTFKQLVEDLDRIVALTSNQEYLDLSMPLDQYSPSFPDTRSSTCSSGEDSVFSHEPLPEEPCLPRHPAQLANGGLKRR
T1 sequence (P35968 20-1356, species assumed): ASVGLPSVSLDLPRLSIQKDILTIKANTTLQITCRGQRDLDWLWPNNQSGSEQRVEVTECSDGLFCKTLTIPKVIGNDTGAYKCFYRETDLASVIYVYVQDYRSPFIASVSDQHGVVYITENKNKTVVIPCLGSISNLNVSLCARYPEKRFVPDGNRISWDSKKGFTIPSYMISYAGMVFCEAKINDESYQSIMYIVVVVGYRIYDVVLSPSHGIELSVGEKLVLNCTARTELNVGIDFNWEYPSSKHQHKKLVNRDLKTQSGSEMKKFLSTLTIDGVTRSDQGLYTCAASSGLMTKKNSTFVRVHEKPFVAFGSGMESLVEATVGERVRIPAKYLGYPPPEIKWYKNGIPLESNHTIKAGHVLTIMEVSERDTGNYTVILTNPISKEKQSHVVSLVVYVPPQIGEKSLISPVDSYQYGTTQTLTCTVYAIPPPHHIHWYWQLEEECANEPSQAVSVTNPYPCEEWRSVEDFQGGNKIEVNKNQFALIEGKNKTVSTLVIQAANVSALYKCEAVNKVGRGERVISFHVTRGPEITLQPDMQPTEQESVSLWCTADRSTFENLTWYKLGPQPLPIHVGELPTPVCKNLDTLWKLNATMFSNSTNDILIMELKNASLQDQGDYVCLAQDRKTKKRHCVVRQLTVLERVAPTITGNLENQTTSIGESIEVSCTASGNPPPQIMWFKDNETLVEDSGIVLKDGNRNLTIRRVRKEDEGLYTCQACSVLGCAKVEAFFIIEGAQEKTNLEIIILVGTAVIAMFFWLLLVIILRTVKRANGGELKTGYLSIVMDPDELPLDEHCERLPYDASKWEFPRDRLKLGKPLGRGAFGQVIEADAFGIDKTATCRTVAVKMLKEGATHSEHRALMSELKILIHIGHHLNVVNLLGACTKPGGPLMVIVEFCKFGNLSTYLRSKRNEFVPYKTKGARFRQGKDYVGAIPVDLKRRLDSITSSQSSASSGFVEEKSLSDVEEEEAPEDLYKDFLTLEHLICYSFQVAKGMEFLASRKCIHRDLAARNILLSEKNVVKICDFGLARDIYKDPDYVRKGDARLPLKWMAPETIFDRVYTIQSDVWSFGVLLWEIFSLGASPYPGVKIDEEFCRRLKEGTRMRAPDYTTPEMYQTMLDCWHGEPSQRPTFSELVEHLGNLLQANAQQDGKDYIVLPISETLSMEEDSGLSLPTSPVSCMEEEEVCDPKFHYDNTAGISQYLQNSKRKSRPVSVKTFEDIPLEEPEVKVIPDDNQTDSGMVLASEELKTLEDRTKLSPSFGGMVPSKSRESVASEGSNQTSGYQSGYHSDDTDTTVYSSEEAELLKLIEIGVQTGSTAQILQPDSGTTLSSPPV

For the compound `COc1cc2c(Nc3ccc(C#N)cc3F)ncnc2cc1OCCn1ccnn1` [compound 5329034, Anilinoquinazoline deriv. 36, reference compound], the IC50 on VEGFR2 [1] (reported IC50 to VEGFR2; read-out: VEGFR2 IC50_μM; cited from earlier work) was 300 nM; in the experiment on any gene target (setting [3]), 300 nM; in the experiment with any gene target (setting [4]), 600 nM. Also, the “VEGFR2, rIC50” value at VEGFR2 [2] (setting [5]) worked out at 0.5. Also, the “FGFR1, rIC50” value at FGFR1 (setting [6]) stood at 10.0. Besides, in the experiment with VEGFR2 and FGFR1 (setting [7]), the “avg rIC50” value amounted to 5.3.

On to `CONC(=O)c1cc(Nc2ncnn3cc(-c4nnc(N(C)C)o4)c(C(C)C)c23)c(F)cc1F` [compound 9982235, 5-[6-(5-Dimethylamino-[1,3,4]oxadiazol-2-yl)-5-isopropyl-pyrrolo[2,1-f][1,2,4]triazin-4-ylamino]-2,4-difluoro-N-methoxy-benzamide, reference compound], for which the IC50 at VEGFR2 [1] (setting [8]) is 6.7 nM; with any gene target (setting [3]) it was 7 nM; in the experiment with any gene target (setting [9]), 6.7 nM. The “VEGFR2, rIC50” value at VEGFR2 [2] (setting [5]) worked out at 1.0. For the same compound, the “FGFR1, rIC50” value on FGFR1 (setting [6]) came out at 1.1. For the same compound, the “avg rIC50” value in the experiment on VEGFR2 and FGFR1 (setting [7]) was 1.0.

In the case of `CONC(=O)c1cc(Nc2ncnn3cc(-c4nnc(CS(C)(=O)=O)o4)c(C(C)C)c23)c(F)cc1F` [compound 10436729, 2,4-Difluoro-5-[5-isopropyl-6-(5-methanesulfonylmethyl-[1,3,4]oxadiazol-2-yl)-pyrrolo[2,1-f][1,2,4]triazin-4-ylamino]-N-methoxy-benzamide, reference compound], the IC50 is 2.1 nM at VEGFR2 [1] (setting [8]), 2 nM with any gene target (setting [3]) and 2.1 nM with any gene target (setting [9]). Moreover, on VEGFR2 [2] (setting [5]), the “VEGFR2, rIC50” value is reported as 1.0. The “FGFR1, rIC50” value on FGFR1 (setting [6]) turned out to be 2.2. For the same compound, the “avg rIC50” value in the experiment on VEGFR2 and FGFR1 (setting [7]) is listed as 1.6.

As to `CONC(=O)c1cc(Nc2ncnn3cc(-c4nnc(C)[nH]4)c(C(C)C)c23)c(F)cc1F` [compound 11328182, 2,4-Difluoro-5-[5-isopropyl-6-(5-methyl-4H-[1,2,4]triazol-3-yl)-pyrrolo[2,1-f][1,2,4]triazin-4-ylamino]-N-methoxy-benzamide], the IC50 with any gene target (lowest reported IC50 to any gene target, read-out: Min IC50_μM) is 46 nM; in the experiment on any gene target (setting [3]) it was 46 nM. Moreover, the “VEGFR2, rIC50” value at VEGFR2 [2] (setting [5]) was determined as 1.1. In addition, the “FGFR1, rIC50” value at FGFR1 is 1.0. Moreover, the “avg rIC50” value in the experiment with VEGFR2 and FGFR1 is recorded as 1.0.

As to `CONC(=O)c1cc(Nc2ncnn3cc(-c4nnc(CC(C)C)o4)c(C(C)C)c23)c(F)cc1F` [compound 11352215, 2,4-Difluoro-5-[6-(5-isobutyl-[1,3,4]oxadiazol-2-yl)-5-isopropyl-pyrrolo[2,1-f][1,2,4]triazin-4-ylamino]-N-methoxy-benzamide, reference compound], the IC50 was 2.1 nM on VEGFR2 [1] (read-out: VEGFR2 IC50_μM; reported IC50 to VEGFR2; Table 3, selective inhibitors of VEGFR2; cited from earlier work); 2 nM with any gene target (setting [3]); 2.1 nM with any gene target (setting [9]). In addition, the “VEGFR2, rIC50” value at VEGFR2 [2] (setting [5]) was 1.0. In addition, the “FGFR1, rIC50” value at FGFR1 (setting [6]) amounted to 3.1. The “avg rIC50” value with VEGFR2 and FGFR1 (setting [7]) is 2.1.

Take `COc1ccc(N2Cc3cnc(Nc4ccccc4)nc3N([C@H]3CC[C@H](O)C3)C2=O)cc1` [compound 11407794, (−)-(1S,3S)-1-(3-Hydroxy-cyclopentyl)-3-(4-methoxy-phenyl)-7-phenylamino-3,4-dihydro-1H-pyrimido[4,5-d]pyrimidin-2-one]: the IC50 with any gene target (setting [3]) and with any gene target (setting [4]) was 33 nM in each case. The “VEGFR2, rIC50” value at VEGFR2 [2] (setting [5]) was 0.5. The “FGFR1, rIC50” value at FGFR1 (setting [6]) turned out to be 2.5. Besides, the “avg rIC50” value in the experiment on VEGFR2 and FGFR1 (setting [7]) is listed as 1.5.

For the compound `Cc1cc2cc(Nc3ncnn4cc(-c5nnc(C)o5)c(C(C)C)c34)cnc2[nH]1` [compound 22273644, 5-Isopropyl-6-(5-methyl-1,3,4-oxadiazol-2-yl)-N-(2-methyl-1H-pyrrolo[2,3-b]pyridin-5-yl)pyrrolo[2,1-f][1,2,4]triazin-4-amine], the results for the IC50 in the experiment with any gene target (setting [3]) and in the experiment on any gene target (setting [4]) were 25 nM and 53 nM, respectively. For the same compound, the “VEGFR2, rIC50” value at VEGFR2 [2] (setting [5]) came out at 0.5. For the same compound, the “FGFR1, rIC50” value on FGFR1 (setting [6]) is reported as 3.1. In addition, the “avg rIC50” value in the experiment with VEGFR2 and FGFR1 (setting [7]) is listed as 1.8.

For the compound `CNC(=O)c1cccc2cc(Oc3ccnc4cc(OCC5(N)CC5)c(OC)cc34)ccc12` [compound 25031915, Lucitanib], the IC50 with any gene target (setting [3]) is 10 nM. Moreover, on VEGFR2 [2] (setting [5]), the “VEGFR2, rIC50” value is listed as 3.6. In addition, the “FGFR1, rIC50” value at FGFR1 stood at 2.5. Moreover, in the experiment with VEGFR2 and FGFR1 (setting [7]), the “avg rIC50” value was 3.0.

For `CCS(=O)(=O)c1ccc2c(c1)C(=Cc1[nH]c3c(c1CN1CCOCC1)CCCC3)C(=O)N2` [compound 44299203, 3-[3-(Morpholinomethyl)-4,5,6,7-tetrahydro-1H-indole-2-ylmethylene]-5-(ethylsulfonyl)-2,3-dihydro-1H-indole-2-one], the IC50 with any gene target (setting [3]) is 70 nM. The “VEGFR2, rIC50” value on VEGFR2 [2] (setting [5]) came to 1.4. In addition, on FGFR1 (setting [6]), the “FGFR1, rIC50” value stood at 5.7. Further, the “avg rIC50” value with VEGFR2 and FGFR1 (setting [7]) was 3.6.

`Cc1nnc(-c2cn3ncnc(Nc4cnc5[nH]ccc5c4)c3c2C(C)C)o1` [compound 44449577, 6-(5-Methyl-1,3,4-oxadiazol-2-yl)-5-propan-2-yl-N-(1H-pyrrolo[2,3-b]pyridin-5-yl)pyrrolo[2,1-f][1,2,4]triazin-4-amine]: the IC50 in the experiment on any gene target (read-out: Min IC50_μM) and in the experiment with any gene target (read-out: min IC50) was 61 nM throughout. For the same compound, the “VEGFR2, rIC50” value on VEGFR2 [2] (setting [5]) came to 0.5. At FGFR1, the “FGFR1, rIC50” value was 2.0. Also, in the experiment on VEGFR2 and FGFR1, the “avg rIC50” value is 1.2.

Consider `CNC(=O)c1cccc2cc(Oc3ccnc4cc(OCC5(N)CC5)c(OC)cc34)ccc12.Cl` [compound 57379018, 6-((7-((1-Aminocyclopropyl)methoxy)-6-methoxyquinolin-4-yl)oxy)-N-methyl-1-naphthamide hydrochloride], for which the IC50 with any gene target (read-out: min IC50) is 10 nM. Also, at VEGFR2 [2] (setting [5]), the “VEGFR2, rIC50” value is 3.6. The “FGFR1, rIC50” value on FGFR1 was determined as 2.5. Also, in the experiment with VEGFR2 and FGFR1 (setting [7]), the “avg rIC50” value stood at 3.0.

Turning to `COc1cc2c(cc1F)C(c1ccccc1Cl)=NC1=C(C)NNC1=N2` [compound 135398512, 5-(2-Chlorophenyl)-7-fluoro-1,2-dihydro-8-methoxy-3-methylpyrazolo(3,4-b)(1,4)benzodiazepine], the IC50 in the experiment on any gene target (read-out: Min IC50_μM) and in the experiment on any gene target (read-out: min IC50) was 24 nM throughout. Moreover, the “VEGFR2, rIC50” value on VEGFR2 [2] was 0.4. The “FGFR1, rIC50” value on FGFR1 amounted to 2.8. Besides, the “avg rIC50” value with VEGFR2 and FGFR1 (setting [7]) was found to be 1.6.

In the case of `Nc1c(-c2nc3ccccc3[nH]2)c(=O)[nH]c2ccccc12` [compound 135410282, 4-Amino-3-(1H-benzo[d]imidazol-2-yl)quinolin-2(1H)-one], the IC50 with any gene target (setting [3]) is 10 nM. On VEGFR2 [2] (setting [5]), the “VEGFR2, rIC50” value is recorded as 5.8. The “FGFR1, rIC50” value at FGFR1 (setting [6]) was 3.0. The “avg rIC50” value with VEGFR2 and FGFR1 (setting [7]) was 4.4.

As for `Fc1ccc2c(-c3nc4cc(N5CCC(N6CCCCC6)CC5)ccc4[nH]3)n[nH]c2c1` [compound 135458467, 2-(6-Fluoro-1H-indazol-3-yl)-5-(4-(piperidin-1-yl)piperidin-1-yl)-1H-benzo[d]imidazole], in the experiment on any gene target (setting [3]), the IC50 is 16 nM. Besides, the “VEGFR2, rIC50” value at VEGFR2 [2] (setting [5]) was 1.6. For the same compound, the “FGFR1, rIC50” value at FGFR1 (setting [6]) was 2.0. The “avg rIC50” value in the experiment on VEGFR2 and FGFR1 (setting [7]) was 1.8.

For `COC(=O)c1ccc2c(C(=Nc3ccc(CN(C)C(=O)N(C)C)cc3)c3ccccc3)c(O)[nH]c2c1` [compound 135837837, Methyl 3-[N-[4-[[dimethylcarbamoyl(methyl)amino]methyl]phenyl]-C-phenylcarbonimidoyl]-2-hydroxy-1H-indole-6-carboxylate], the IC50 with any gene target (setting [3]) is 10 nM. For the same compound, at VEGFR2 [2] (setting [5]), the “VEGFR2, rIC50” value came to 6.1. Also, the “FGFR1, rIC50” value at FGFR1 (setting [6]) was 5.0. Besides, the “avg rIC50” value with VEGFR2 and FGFR1 (setting [7]) is on record as 5.6.

Turning to `C[C@@H](Oc1ccc2[nH]nc(-c3nc4cc(N5CCN(C)CC5)ccc4[nH]3)c2c1)c1c(Cl)cncc1Cl` [compound 136211077, 5-[(R)-1-(3,5-Dichloropyridine-4-yl)ethoxy]-3-[5-(4-methylpiperazine-1-yl)-1H-benzoimidazole-2-yl]-1H-indazole], the IC50 in the experiment with any gene target (Table 2, lowest reported IC50 to any gene target, read-out: Min IC50_μM) was 2 nM; in the experiment with any gene target (setting [3]), 1 nM. At VEGFR2 [2] (setting [5]), the “VEGFR2, rIC50” value is recorded as 8.3. For the same compound, the “FGFR1, rIC50” value on FGFR1 (setting [6]) was 0.4. In the experiment with VEGFR2 and FGFR1 (setting [7]), the “avg rIC50” value amounted to 4.4.

For `COC(=O)Nc1ccc(-c2c(OC3CCN(C)CC3)nc3c(-c4ccc(OC)c(OC)c4)cnn3c2N)cc1` [compound 156010414, Methyl N-[4-[7-amino-3-(3,4-dimethoxyphenyl)-5-(1-methylpiperidin-4-yl)oxypyrazolo[1,5-a]pyrimidin-6-yl]phenyl]carbamate], in the experiment with any gene target (setting [3]), the IC50 was 6 nM. For the same compound, the “VEGFR2, rIC50” value on VEGFR2 [2] (setting [5]) is reported as 4.3. In addition, the “FGFR1, rIC50” value at FGFR1 (setting [6]) is reported as 1.7. In addition, the “avg rIC50” value with VEGFR2 and FGFR1 (setting [7]) was 3.0.

As to Chembl4213341 [compound 138393067], in the experiment on any gene target (setting [3]), the IC50 was 37 nM. The “VEGFR2, rIC50” value at VEGFR2 [2] (setting [5]) was determined as 1.7. In addition, the “FGFR1, rIC50” value at FGFR1 (setting [6]) is 8.7. In addition, the “avg rIC50” value with VEGFR2 and FGFR1 (setting [7]) was 5.2.

On to Chembl4449189 [compound 155520650], for which the IC50 with any gene target (setting [3]) was 110 nM. Also, the “VEGFR2, rIC50” value on VEGFR2 [2] (setting [5]) is 2.4. Besides, the “FGFR1, rIC50” value on FGFR1 (setting [6]) was found to be 1.2. For the same compound, in the experiment on VEGFR2 and FGFR1 (setting [7]), the “avg rIC50” value was 1.8.

Take Chembl4573547 [compound 155563388]: the IC50 in the experiment with any gene target (setting [3]) was 150 nM. At VEGFR2 [2] (setting [5]), the “VEGFR2, rIC50” value is 1.1. Besides, the “FGFR1, rIC50” value at FGFR1 (setting [6]) came out at 1.9. In the experiment with VEGFR2 and FGFR1 (setting [7]), the “avg rIC50” value came out at 1.5.
